We go through 2 compounds from patent US20130165368A1, “ANTIMICROBIAL COMPOUNDS” (priority 2010, published 2013).

Molecules are shown by their SMILES. In brackets after ≈: the same amount, converted by molar mass. Read-outs that look alike come from different tables or passages of the source.

Assay type in all cases: cell-based
In one test the test system is Staphylococcus aureus. In words: MIC agar dilution, micro-organism 13 (6571). As to conditions: Staphylococcus aureus, Staphylococcus aureus 6571, read-out: MIC. Here is the method: (§1) Throughout the period of testing the microbial strains were subcultured and incubated for 18-20 hours at 37° C. on a weekly basis. Horse blood agar plates were used to sustain the micro-organisms both prior to and throughout testing. The alkoxylated alkanols listed in Table II below were obtained (these are obtainable from Sigma-Aldrich Company Ltd, Dorset, England), each having a GC purity of at least 97%.
(§2) Molar equivalent concentrations were used to allow comparison between compounds of differing molecular mass. Due to weighing difficulties, any compound in solid form was melted in a water bath prior to dilution. To make ten-times strength concentrations, which takes into account agar dilution, 0.0352 mmol of each compound was weighed into plastic universal bottles and 4 mL of sterile distilled water (SDW) was added. To produce a homogenous emulsion the universals were vortexed; once achieved the emulsions were serial diluted by adding 2 mL to 2 mL of SDW.
(§3) Myristyl alcohol and lauryl alcohol were re-weighed and dissolved in 25 μL of the polar solvent 1-methyl-2-pyrrolidone (M6762; Sigma-Aldrich) in sterile glass universals due to an inability to achieve an even suspension. To maintain an even emulsion in the presence of SDW 37.5 μL of the non-ionic detergent Tween 20 (P1379, Sigma-Aldrich) was also added. 3.9375 mL of SDW was added to these, to create a 4 mL volume; they were vortexed and diluted as before.
(§4) For every 100 mL of Isosensitest agar (IST) (CM0471; Oxoid, Basingstoke, England), 3.1 g of the IST powder was added to 100 mL SDW (as per manufacturer's instructions) and sterilised for 15 minutes at 121° C. Once sterilised, the molten agar was cooled to 50° C. in a water-bath. Subsequently 4.8 g of CCEY powder (BC2160; Bioconnections, Wetherby, England), also known as Brazier's medium, was added to 100 mL SDW for every 100 mL of agar needed. This was then sterilised for 15 minutes at 121° C. Once sterilised the molten agar was cooled to 50° C. in a water-bath and 4 mL of egg-yolk emulsion (S2073; TCS Biosciences Ltd, Buckingham, United Kingdom) and 1 mL of lysed defibrinated horse blood (HB035; TCS Biosciences Ltd, Buckingham, United Kingdom) were also added for every 100 mL needed. Horse blood lysis is achieved by dilution to half concentration with SDW; when fully lysed the mixture will turn dark red in colour.
(§5) 18 mL agar was added to each universal and then poured into sterile Petri dishes. This step creates a 1/10 dilution resulting in agar plates of the required strength. Control plates for each set of strains were created by adding 18 mL of agar to 2 mL of SDW.
(§6) Suspensions of each bacterial species were prepared with a density equal to that of a 0.5 McFarland standard using a densitometer. All suspensions were made using sterile distilled water and fresh 18-20 hour cultures. As a 0.5 McFarland standard contains 1.5×10^8 CFU/mL and the multipoint inoculators applies 1 μL spots of liquid, each bacterial suspension was diluted 1/15 (20 μL suspension to 280 μL sterile distilled water).
(§7) Bacterial suspensions were prepared from fresh 18-24 hour cultures as previously described. 1 μL of each strain was inoculated onto all 100 agar plates containing a different chemical concentration and the 2 control plates. This was done using a multipoint inoculator which inoculates 20 strains per plate. All plates were incubated for 22 hours at 37° C. in aerobic conditions.
(§8) Each plate was examined for bacterial growth after 22 and 48 hours, with each being incubated in between examinations. A positive result was recorded as growth of ≧10 colonies. A negative result was recorded as growth of <10 colonies as this is equivalent to 99.9% inhibition. The lowest concentration of chemical that inhibited growth was recorded as the MIC. The results are recorded in Table IV below, where the numbers are quoted in mmol/L. […]
Background: Agar dilution tests growth on a series of plates holding different concentrations.

In another test the test system is Burkholderia cepacia. In words: MIC agar dilution, micro-organism 9 (1222). As to conditions: Burkholderia cepacia 1222; 48 hrs; read-out: MIC. The method, then:
as §1, §2, §3, §4, §5, §6, §7
(§9) Each plate was examined for bacterial growth after 22 and 48 hours, with each being incubated in between examinations. A positive result was recorded as growth of ≧10 colonies. A negative result was recorded as growth of <10 colonies as this is equivalent to 99.9% inhibition. The lowest concentration of chemical that inhibited growth was recorded as the MIC. The results are recorded in Table IV below, where the numbers are quoted in mmol/L.
(§10) Further experiments have also been conducted to determine the MIC of a number of other compositions as follows. […]

Another test concerns Bacillus subtilis. The test can be described thus: MIC agar dilution, micro-organism 18 (9372). Conditions: Bacillus subtilis 9372, read-out: MIC. Here is the method:
as §1, §2, §3, §4, §5, §6, §7, §8

The next test relates to Salmonella typhimurium. In words: MIC agar dilution, micro-organism 6 (74). Conditions: Salmonella enterica; Salmonella typhimurium 74; 48 hrs; read-out: MIC. The method, then: as §1, §2, §3, §4, §5, §6, §7, §9, §10
Another test concerns Acinetobacter baumannii. In words: MIC agar dilution, micro-organism 10 (19606). Conditions: Acinetobacter baumannii 19606; 48 hrs; read-out: MIC. The method, then:
as §1, §2, §3, §4, §5, §6, §7, §9, §10

In test [1] the test system is Staphylococcus aureus (MRSA). The test can be described thus: MIC agar dilution, micro-organism 12 (11939). As to conditions: Staphylococcus aureus, MRSA, Staphylococcus aureus (MRSA) 11939, read-out: MIC. Here is the method: as §1, §2, §3, §4, §5, §6, §7, §8
A further test has as its system Klebsiella pneumoniae. The test can be described thus: MIC agar dilution, micro-organism 2 (9528). As to conditions: Klebsiella pneumoniae 9528; 48 hrs; read-out: MIC. The method, then:
as §1, §2, §3, §4, §5, §6, §7, §9, §10

For the next test, the system named is Enterococcus faecium. In words: MIC agar dilution, micro-organism 16 (7171). As to conditions: Enterococcus faecium 7171, read-out: MIC. Here is the method:
as §1, §2, §3, §4, §5, §6, §7, §8

The test system of a further test is Steptococcus pyogenes. In words: MIC agar dilution, micro-organism 11 (8306). Conditions: Steptococcus pyogenes 8306, read-out: MIC. The method, then:
as §1, §2, §3, §4, §5, §6, §7, §8

In the next test the test system is Candida albicans. The test can be described thus: MIC agar dilution, micro-organism 19 (90028). Conditions: Candida albicans 90028, read-out: MIC. The method, then: as §1, §2, §3, §4, §5, §6, §7, §8
The subject of another test is Pseudomonas aeruginosa. The test can be described thus: MIC agar dilution, micro-organism 7 (10662). As to conditions: Pseudomonas aeruginosa 10662; 48 hrs; read-out: MIC. Here is the method:
as §1, §2, §3, §4, §5, §6, §7, §9, §10

A further test has as its system Enterobacter cloacae. The test can be described thus: MIC agar dilution, micro-organism 4 (11936). As to conditions: Enterobacter cloacae 11936; 48 hrs; read-out: MIC. The method, then: as §1, §2, §3, §4, §5, §6, §7, §9, §10
A further test has as its system Serratia marcescens. The test can be described thus: MIC agar dilution, micro-organism 5 (10211). As to conditions: Serratia marcescens 10211; 48 hrs; read-out: MIC. The method, then:
as §1, §2, §3, §4, §5, §6, §7, §9, §10

A further test relates to Listeria monocytogenes. The test can be described thus: MIC agar dilution, micro-organism 15 (11994). As to conditions: Listeria monocytogenes 11994, read-out: MIC. Here is the method: as §1, §2, §3, §4, §5, §6, §7, §8
In a further test the test system is Providencia rettgeri. The test can be described thus: MIC agar dilution, micro-organism 3 (7475). As to conditions: Providencia rettgeri 7475, read-out: MIC. The method, then:
as §1, §2, §3, §4, §5, §6, §7, §8

A further test concerns Enterococcus faecalis. In words: MIC agar dilution, micro-organism 17 (775). As to conditions: Enterococcus faecalis 775, read-out: MIC. Here is the method: as §1, §2, §3, §4, §5, §6, §7, §8
A further test deals with Escherichia coli. The test can be described thus: MIC agar dilution, micro-organism 1 (10418). Conditions: Escherichia coli 10418, read-out: MIC. Here is the method: as §1, §2, §3, §4, §5, §6, §7, §8
The next test deals with Yersinia enterocolitica. The test can be described thus: MIC agar dilution, micro-organism 8 (11176). Conditions: Yersinia enterocolitica 11176; 48 hrs; read-out: MIC. Here is the method:
as §1, §2, §3, §4, §5, §6, §7, §9, §10

For test [2], the system named is Staphylococcus epidermidis. The test can be described thus: MIC agar dilution, micro-organism 14 (11047). As to conditions: Staphylococcus epidermidis 11047, read-out: MIC. Here is the method: as §1, §2, §3, §4, §5, §6, §7, §8
The test system of another test is Candida glabrata. The test can be described thus: MIC agar dilution, micro-organism 20 (3943). As to conditions: Nakaseomyces glabratus, Candida glabrata 3943, read-out: MIC. Here is the method:
as §1, §2, §3, §4, §5, §6, §7, §8

The test system of test [3] is Gram negative bacteria, Gram positive bacteria and pathogenic yeasts. In words: MIC agar dilution, summary statements over the micro-organisms tested (Tables I, IX). Conditions: over the micro-organisms tested or some of them; read-out: MIC.
Text: For a better understanding, the present invention will now be more particularly described, by way of non-limiting example only, as follows. The micro-organisms shown in Table I overleaf were acquired from the National Collection of Type Cultures (NCTC), Colindale, United Kingdom; the American Type Culture Collection (ATCC), Manassas, United States and the National Collection of Pathogenic Fungi (NCPF), Colindale, United Kingdom. They include Gram negative bacteria, Gram positive bacteria and pathogenic yeasts.
as §1, §2, §3, §4, §5, §6
Bacterial suspensions were prepared from fresh 18-24 hour cultures as previously described. 1 μL of each strain was inoculated onto all 100 agar plates containing a different chemical concentration and the 2 control plates. This was done using a multipoint inoculator which inoculates 20 strains per plate. All plates were incubated for 22 hours at 37° C. in aerobic conditions. […]

By MIC is commonly meant the lowest concentration that inhibits growth of the organism.

Consider `OCCCCCCCCCCCCO` [D, 1,12-dodecanediol, reference compound], for which the MIC in the test on Staphylococcus aureus (48 h, 48 hrs) is more than 880 µM; in the test on Burkholderia cepacia, more than 880 µM; in the test with Bacillus subtilis (48 hrs) it was more than 880 µM; with Salmonella typhimurium it was more than 880 µM; in the test on Acinetobacter baumannii, more than 880 µM; in test [1] (48 h, 48 hrs), more than 880 µM. Also, the minimal inhibitory concentration (MIC) was more than 880 µM in the test on Klebsiella pneumoniae; more than 880 µM in the test on Enterococcus faecium (48 hrs); more than 880 µM with Steptococcus pyogenes (48 h, 48 hrs); more than 880 µM in the test on Candida albicans (48 hrs); more than 880 µM in the test with Pseudomonas aeruginosa; more than 880 µM in the test on Enterobacter cloacae. For the same compound, the minimal inhibitory concentration (MIC) in the test with Serratia marcescens, in the test on Listeria monocytogenes (48 hrs), in the test with Providencia rettgeri (48 hrs), with Enterococcus faecalis (48 hrs), with Escherichia coli (48 hrs) and in the test on Yersinia enterocolitica was more than 880 µM each time. Moreover, the MIC in [2] (48 hrs) was more than 880 µM; in the test with Candida glabrata (48 h, 48 hrs), more than 880 µM.

For `CCCCCCCCCCCCCCOCCOCCOCCOCCO` [M4, Tetraethylene Glycol Monotetradecyl Ether], the MIC was 55 µM (≈ 21.5 µg/mL) in the test with Staphylococcus aureus (22 h, 22 hrs); 55 µM (≈ 21.5 µg/mL) in the test on Staphylococcus aureus (48 h, 48 hrs); less than 220 µM in test [3]; 220 µM (≈ 85.9 µg/mL) in the test with Bacillus subtilis (22 hrs); 220 µM (≈ 85.9 µg/mL) in the test on Bacillus subtilis (48 hrs); 110 µM (≈ 43 µg/mL) in test [1] (22 h, 22 hrs). Besides, the MIC in test [1] (48 h, 48 hrs) is 110 µM (≈ 43 µg/mL); with Enterococcus faecium (22 hrs) it was more than 880 µM; in the test on Enterococcus faecium (48 hrs), more than 880 µM; with Steptococcus pyogenes (22 h, 22 hrs) it was 27.5 µM (≈ 10.7 µg/mL); in the test with Steptococcus pyogenes (48 h, 48 hrs) it was 27.5 µM (≈ 10.7 µg/mL); in the test on Candida albicans (22 hrs) it was more than 880 µM. For the same compound, the minimal inhibitory concentration (MIC) with Candida albicans (48 hrs) is more than 880 µM; with Listeria monocytogenes (22 hrs), 440 µM (≈ 172 µg/mL); in the test on Listeria monocytogenes (48 hrs), more than 880 µM; in the test on Providencia rettgeri (22 hrs), more than 880 µM; with Providencia rettgeri (48 hrs) it was more than 880 µM; in the test on Enterococcus faecalis (22 hrs) it was 220 µM (≈ 85.9 µg/mL). For the same compound, the minimum inhibitory concentration (MIC) in the test with Enterococcus faecalis (48 hrs) is 220 µM (≈ 85.9 µg/mL); in the test on Escherichia coli (22 hrs), more than 880 µM; in the test on Escherichia coli (48 hrs), more than 880 µM; in test [2] (22 hrs), 55 µM (≈ 21.5 µg/mL); in test [2] (48 hrs), 110 µM (≈ 43 µg/mL); with Candida glabrata (22 h, 22 hrs), more than 880 µM. The MIC with Candida glabrata (48 h, 48 hrs) was more than 880 µM.
